Experimental findings from patent publication US11739070B2, “C5A receptor modulators” (IDORSIA PHARMACEUTICALS LTD, priority 2018, dated 2023) are described below.

As a reminder, the pIC50 is −log10 of the IC50, conventionally taken in molar units.

pIC50: −log10 of the molar value.

The experiment has as its target T1, C5AR1 (Homo sapiens, UniProt P21730).
T1 construct: host or cells: CHO-K1
T1 sequence (P21730 1-350): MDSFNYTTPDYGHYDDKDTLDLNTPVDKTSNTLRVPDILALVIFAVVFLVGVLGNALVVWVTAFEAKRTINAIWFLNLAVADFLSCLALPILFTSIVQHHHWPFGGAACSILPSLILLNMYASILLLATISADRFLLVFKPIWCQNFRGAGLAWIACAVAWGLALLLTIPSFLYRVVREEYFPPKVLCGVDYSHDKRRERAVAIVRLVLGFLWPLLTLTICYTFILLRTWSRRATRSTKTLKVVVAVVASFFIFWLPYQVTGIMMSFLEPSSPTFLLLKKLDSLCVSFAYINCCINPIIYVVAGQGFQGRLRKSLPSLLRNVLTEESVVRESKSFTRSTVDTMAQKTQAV
Nature of the experiment: hC5a DISCO IC50 assay (PathHunter beta-arrestin, antagonist mode). Type of experiment: cell-based. The following applies: CHO-K1 C5AR1 beta-arrestin cell line; antagonist vs 1-10 nM C5a agonist; geometric mean values; read-out: C5aR IC50. The method in brief:
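Antagonist added first, then 1-10 nM C5a agonist; cells incubated 1.5 h at 37 °C. Beta-arrestin signal developed with PathHunter detection reagent, 45 min at RT. IC50 in nmol/l from serial antagonist dilutions, reported as geometric mean of several measurements.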
For the molecule `Cc1cccc(F)c1N1CC[C@@H](n2c(=O)n(Cc3ccccc3C(F)(F)F)c3c(OCC4COC(C)(C)O4)nccc32)C1` (stereo partly drawn) [Example 125, 4-(2,2-Dimethyl-[1,3]dioxolan-4-ylmethoxy)-1-[(R)-1-(2-fluoro-6-methyl-phenyl)-pyrrolidin-3-yl]-3-(2-trifluoromethyl-benzyl)-1,3-dihydro-imidazo[4,5-c]pyridin-2-one], the pIC50 was 6.91.

Consider `CCOC(=O)N1CC[C@@H](n2c(=O)n(Cc3ccccc3C(F)(F)F)c3c(OC)cccc32)C1` [Example 60, (R)-3-[4-Methoxy-2-oxo-3-(2-trifluoromethyl-benzyl)-2,3-dihydro-benzoimidazol-1-yl]-pyrrolidine-1-carboxylic acid ethyl ester], for which the pIC50 is 7.08.

As for `COc1cccc2c1n(Cc1ccccc1C(F)(F)F)c(=O)n2C1CN(c2c(C)cccc2F)C1` [Example 215, 1-[1-(2-Fluoro-6-methyl-phenyl)-azetidin-3-yl]-4-methoxy-3-(2-trifluoromethyl-benzyl)-1,3-dihydro-benzoimidazol-2-one], the pIC50 was 7.57.

Take `COc1cc(Cl)nnc1Cn1c(=O)n([C@@H]2CCN(c3c(C)cccc3F)C2)c2cccc(OC)c21` [Example 92, 3-(6-Chloro-4-methoxy-pyridazin-3-ylmethyl)-1-[(R)-1-(2-fluoro-6-methyl-phenyl)-pyrrolidin-3-yl]-4-methoxy-1,3-dihydro-benzoimidazol-2-one]: the pIC50 is 5.69.

Consider `COc1nccc(C)c1N1CC[C@@H](n2c(=O)n(Cc3ccccc3C(F)(F)F)c3c(OC)nccc32)C1` [Example 47, 4-Methoxy-1-[(R)-1-(2-methoxy-4-methyl-pyridin-3-yl)-pyrrolidin-3-yl]-3-(2-trifluoromethyl-benzyl)-1,3-dihydro-imidazo[4,5-c]pyridin-2-one], for which the pIC50 is 7.02.

Turning to `COc1cccc2c1n(Cc1ccccc1C(F)(F)F)c(=O)n2C1CCN(C(C)C)CC1` [Example 35, 1-(1-Isopropyl-piperidin-4-yl)-4-methoxy-3-(2-trifluoromethyl-benzyl)-1,3-dihydro-benzoimidazol-2-one], the pIC50 is 5.35.

Consider `COc1cccc2c1n(Cc1ccccc1C(F)(F)F)c(=O)n2[C@@H]1CCN(c2c(C)ccnc2F)C1` [Example 37, 1-[(R)-1-(2-Fluoro-4-methyl-pyridin-3-yl)-pyrrolidin-3-yl]-4-methoxy-3-(2-trifluoromethyl-benzyl)-1,3-dihydro-benzoimidazol-2-one], for which the pIC50 is 8.15.

For `COc1cccc2c1n(Cc1ccccc1C(F)(F)F)c(=O)n2[C@@H]1CCN(c2c(F)cccc2[N+](=O)[O-])C1` [Example 154, 1-[(R)-1-(2-Fluoro-6-nitro-phenyl)-pyrrolidin-3-yl]-4-methoxy-3-(2-trifluoromethyl-benzyl)-1,3-dihydro-benzoimidazol-2-one], the pIC50 was 7.64.

On to `COc1cccc2c1n(Cc1ccccc1C(F)(F)F)c(=O)n2C1CCN(c2c(C)ccnc2C)CC1` [Example 237, 1-(2′,4′-Dimethyl-3,4,5,6-tetrahydro-2H-[1,3′]bipyridinyl-4-yl)-4-methoxy-3-(2-trifluoromethyl-benzyl)-1,3-dihydro-benzoimidazol-2-one], for which the pIC50 is 7.05.

For the molecule `COc1cccc2c1n(Cc1cncnc1C(F)(F)F)c(=O)n2[C@@H]1CCN(c2c(C)cccc2F)C1` [Example 176, 1-[(R)-1-(2-Fluoro-6-methyl-phenyl)-pyrrolidin-3-yl]-4-methoxy-3-(4-trifluoromethyl-pyrimidin-5-ylmethyl)-1,3-dihydro-benzoimidazol-2-one], the pIC50 is 7.32.

Take `COc1cccc2c1n(Cc1nnccc1OC(C)C)c(=O)n2[C@@H]1CCN(c2c(C)cccc2F)C1` [Example 173, 1-[(R)-1-(2-Fluoro-6-methyl-phenyl)-pyrrolidin-3-yl]-3-(4-isopropoxy-pyridazin-3-ylmethyl)-4-methoxy-1,3-dihydro-benzoimidazol-2-one]: the pIC50 is 6.97.

For the molecule `COc1ccnc2c1n(Cc1ccccc1C(F)(F)F)c(=O)n2[C@@H]1CCN(c2c(F)cccc2F)C1` [Example 46, 3-[(R)-1-(2,6-Difluoro-phenyl)-pyrrolidin-3-yl]-7-methoxy-1-(2-trifluoromethyl-benzyl)-1,3-dihydro-imidazo[4,5-b]pyridin-2-one], the pIC50 was 7.41.

`COc1cccc2c1n(Cc1ccccc1C(F)(F)F)c(=O)n2[C@@H]1CCN(c2c(F)cccc2CN2CCC(N(C)C)CC2)C1` [Example 136, 1-{(R)-1-[2-(4-Dimethylamino-piperidin-1-ylmethyl)-6-fluoro-phenyl]-pyrrolidin-3-yl}-4-methoxy-3-(2-trifluoromethyl-benzyl)-1,3-dihydro-benzoimidazol-2-one]: the pIC50 is 5.80.

For `Cc1cccc(F)c1N1CC[C@@H](n2c(=O)n(Cc3ccccc3C(F)(F)F)c3c(OCCN4CCOCC4)nccc32)C1` [Example 121, 1-[(R)-1-(2-Fluoro-6-methyl-phenyl)-pyrrolidin-3-yl]-4-(2-morpholin-4-yl-ethoxy)-3-(2-trifluoromethyl-benzyl)-1,3-dihydro-imidazo[4,5-c]pyridin-2-one], the negative-log IC50 (pIC50) is 6.57.

On to `COc1nccc2c1n(Cc1ccccc1C(F)(F)F)c(=O)n2[C@@H]1CCN(c2c(C)ccnc2F)C1` [Example 48, 1-[(R)-1-(2-Fluoro-4-methyl-pyridin-3-yl)-pyrrolidin-3-yl]-4-methoxy-3-(2-trifluoromethyl-benzyl)-1,3-dihydro-imidazo[4,5-c]pyridin-2-one], for which the pIC50 is 6.78.

For the molecule `CCOC(=O)C1CN(C(=O)OC(C)(C)C)CCC1n1c(=O)n(Cc2ccccc2C(F)(F)F)c2c(OC)cccc21` (stereo not shown) [Example 164, 4-[4-Methoxy-2-oxo-3-(2-trifluoromethyl-benzyl)-2,3-dihydro-benzoimidazol-1-yl]-piperidine-1,3-dicarboxylic acid 1-tert-butyl ester 3-ethyl ester], the pIC50 is 6.75.

For the molecule `COc1cccc2c1n(Cc1ccccc1C(F)(F)F)c(=O)n2[C@@H]1CCN(c2c(F)cccc2CCN2CCOCC2)C1` [Example 131, 1-{(R)-1-[2-Fluoro-6-(2-morpholin-4-yl-ethyl)-phenyl]-pyrrolidin-3-yl}-4-methoxy-3-(2-trifluoromethyl-benzyl)-1,3-dihydro-benzoimidazol-2-one], the pIC50 was 7.28.

`COc1cccc2c1n(Cc1ccccc1C(F)(F)F)c(=O)n2C1CCN(c2c(F)ccnc2C)CC1` [Example 244, 1-(4′-Fluoro-2′-methyl-3,4,5,6-tetrahydro-2H-[1,3′]bipyridinyl-4-yl)-4-methoxy-3-(2-trifluoromethyl-benzyl)-1,3-dihydro-benzoimidazol-2-one]: the pIC50 was 6.64.

Regarding `COc1cccc2c1n(Cc1ccccc1C(F)(F)F)c(=O)n2[C@@H]1CCN(c2c(C)cncc2C)C1` [Example 36, 1-[(R)-1-(3,5-Dimethyl-pyridin-4-yl)-pyrrolidin-3-yl]-4-methoxy-3-(2-trifluoromethyl-benzyl)-1,3-dihydro-benzoimidazol-2-one], the pIC50 is 6.35.

Turning to `COc1ccnc2c1n(Cc1ccccc1C(F)(F)F)c(=O)n2[C@@H]1CCN(c2c(C)cccc2C)C1` [Example 45, 3-[(R)-1-(2,6-Dimethyl-phenyl)-pyrrolidin-3-yl]-7-methoxy-1-(2-trifluoromethyl-benzyl)-1,3-dihydro-imidazo[4,5-b]pyridin-2-one], the pIC50 was 7.80.

As for `N#Cc1cccc(F)c1N1CC[C@@H](n2c(=O)n(Cc3ccccc3C(F)(F)F)c3c(C(N)=O)cccc32)C1` [Example 100, 1-[(R)-1-(2-Cyano-6-fluoro-phenyl)-pyrrolidin-3-yl]-2-oxo-3-(2-trifluoromethyl-benzyl)-2,3-dihydro-1H-benzoimidazole-4-carboxylic acid amide], the negative-log IC50 (pIC50) is 5.85.

Take `COc1cccc2c1n(Cc1ccccc1C(F)(F)F)c(=O)n2[C@@H]1CCN(C(=O)OC(C)C)C1` [Example 61, (R)-3-[4-Methoxy-2-oxo-3-(2-trifluoromethyl-benzyl)-2,3-dihydro-benzoimidazol-1-yl]-pyrrolidine-1-carboxylic acid isopropyl ester]: the pIC50 was 7.19.

Turning to `COc1cccc2c1n(Cc1ccccc1C(F)(F)F)c(=O)n2[C@@H]1CCN(c2nnc(C(F)(F)F)o2)C1` [Example 84, 4-Methoxy-3-(2-trifluoromethyl-benzyl)-1-[(R)-1-(5-trifluoromethyl-[1,3,4]oxadiazol-2-yl)-pyrrolidin-3-yl]-1,3-dihydro-benzoimidazol-2-one], the pIC50 was 5.69.

Consider `Cc1cccc(F)c1N1CC[C@@H](n2c(=O)n(Cc3ccccc3C(F)(F)F)c3c(OC4CCN(C(=O)OC(C)(C)C)CC4)nccc32)C1` [Example 122, 4-[1-[(R)-1-(2-Fluoro-6-methyl-phenyl)-pyrrolidin-3-yl]-2-oxo-3-(2-trifluoromethyl-benzyl)-2,3-dihydro-1H-imidazo[4,5-c]pyridin-4-yloxy]-piperidine-1-carboxylic acid tert-butyl ester], for which the pIC50 was 6.29.

Regarding `COc1cccc2c1n(Cc1ccccc1C(F)(F)F)c(=O)n2[C@@H]1CCN(c2ccccc2F)C1` [Example 160, 1-[(R)-1-(2-Fluoro-phenyl)-pyrrolidin-3-yl]-4-methoxy-3-(2-trifluoromethyl-benzyl)-1,3-dihydro-benzoimidazol-2-one], the pIC50 is 7.46.
